Source: ChEMBL document CHEMBL3885861, “Open TG-GATES”

Species: Rattus norvegicus
Experiment: Open TG-GATES - Regimen: Single
Assay type: toxicity, organism-based, Sprague-Dawley
Design: regimen Single, gender Male, age 6 weeks
Conditions: in vivo, po, 0 mg/kg, route gavage, dose level Control; for APTT / Bas / Eos / Fbg / Hb / Lym / MCH / MCHC / MCV / Mono / Neu / PT / RBC / Ret / WBC: tissue Blood; for KIDNEY_L / KIDNEY_R / KIDNEY_TOTAL: tissue Kidney; for ALT / AST / CRE / DBIL / IP / K / LDH / Na / RALB / TBIL / TC / TG / TP / gamma-GTP / ALP: tissue Plasma

SMILES: Cc1cnc(NC(=O)C2=C(O)c3ccccc3S(=O)(=O)N2C)s1 [MELOXICAM]
- TERMINAL_BW (3 h): 226.2 g
- APTT (3 h): 17.9 s
- Bas (3 h): 0.4%
- Eos (3 h): 1%
- Fbg (3 h): 222.8 mg/dL
- Hb (3 h): 13.4 g/dL
- Lym (3 h): 78.6%
- MCH (3 h): 21.2 pg
- MCHC (3 h): 34.1%
- MCV (3 h): 62.3 fL
- Mono (3 h): 2%
- Neu (3 h): 17.6%
- PT (3 h): 11.8 s
- RBC (3 h): 633.2 x10_4/ul
- Ret (3 h): 7%
- WBC (3 h): 78.8 x10_2/uL
- KIDNEY_L (3 h): 1 g
- KIDNEY_R (3 h): 1 g
- KIDNEY_TOTAL (3 h): 2 g
- ALT (3 h): 37.6 IU/L
- AST (3 h): 68 IU/L
- CRE (3 h): 0.4 mg/dL
- DBIL (3 h): 0.06 mg/dL
- IP (3 h): 9.3 mg/dL
- K (3 h): 3.7 meq/L
- LDH (3 h): 149.4 IU/L
- Na (3 h): 141.4 meq/L
- RALB (3 h): 3.4 g/dL
- TBIL (3 h): 0.1 mg/dL
- TC (3 h): 79.6 mg/dL
- TG (3 h): 61.6 mg/dL
- TP (3 h): 5.4 g/dL
- gamma-GTP (3 h): 1 IU/L
- TERMINAL_BW (6 h): 224.5 g
- Bas (6 h): 0.6%
- Eos (6 h): 0.6%
- Fbg (6 h): 235.8 mg/dL
- Lym (6 h): 75.2%
- MCH (6 h): 21.8 pg
- MCHC (6 h): 33.8%
- MCV (6 h): 64.4 fL
- Mono (6 h): 3.2%
- Neu (6 h): 19.8%
- PT (6 h): 12.6 s
- RBC (6 h): 625.4 x10_4/ul
- Ret (6 h): 7.3%
- WBC (6 h): 110.7 x10_2/uL
- KIDNEY_L (6 h): 1 g
- KIDNEY_R (6 h): 1 g
- KIDNEY_TOTAL (6 h): 2 g
- ALP (6 h): 739.4 IU/L
- ALT (6 h): 31.4 IU/L
- AST (6 h): 61.6 IU/L
- CRE (6 h): 0.3 mg/dL
- DBIL (6 h): 0.066 mg/dL
- IP (6 h): 9.5 mg/dL
- K (6 h): 3.9 meq/L
- LDH (6 h): 153 IU/L
- Na (6 h): 141.4 meq/L
- RALB (6 h): 3.3 g/dL
- TBIL (6 h): 0.1 mg/dL
- TC (6 h): 74.8 mg/dL
- TG (6 h): 55.2 mg/dL
- TP (6 h): 5.4 g/dL
- gamma-GTP (6 h): 0.8 IU/L
- TERMINAL_BW (9 h): 222.3 g
- APTT (9 h): 17.6 s
- Bas (9 h): 0.2%
- Eos (9 h): 1%
- Fbg (9 h): 233.2 mg/dL
- Hb (9 h): 13.5 g/dL
- Lym (9 h): 72.4%
- MCH (9 h): 22.1 pg
- MCHC (9 h): 34.1%
- MCV (9 h): 64.8 fL
- Mono (9 h): 3%
- Neu (9 h): 22.4%
- PT (9 h): 12.6 s
- RBC (9 h): 610.8 x10_4/ul
- Ret (9 h): 7.2%
- WBC (9 h): 88.3 x10_2/uL
- KIDNEY_L (9 h): 1 g
- KIDNEY_R (9 h): 1 g
- KIDNEY_TOTAL (9 h): 2.1 g
- ALP (9 h): 910.8 IU/L
- ALT (9 h): 29.6 IU/L
- AST (9 h): 62.6 IU/L
- CRE (9 h): 0.4 mg/dL
- DBIL (9 h): 0.068 mg/dL
- IP (9 h): 9.5 mg/dL
- K (9 h): 4 meq/L
- LDH (9 h): 153.2 IU/L
- Na (9 h): 141.6 meq/L
- RALB (9 h): 3.4 g/dL
- TBIL (9 h): 0.1 mg/dL
- TC (9 h): 70.6 mg/dL
- TG (9 h): 78.8 mg/dL
- TP (9 h): 5.5 g/dL
- gamma-GTP (9 h): 1.2 IU/L
- TERMINAL_BW (24 h): 238.2 g
- Bas (24 h): 0.6%
- Eos (24 h): 1.2%
- Fbg (24 h): 224.8 mg/dL
- Lym (24 h): 78.6%
- MCH (24 h): 21.1 pg
- MCHC (24 h): 33.9%
- MCV (24 h): 62.4 fL
- Mono (24 h): 2.6%
- Neu (24 h): 16.4%
- PT (24 h): 11.7 s
- RBC (24 h): 646.8 x10_4/ul
- Ret (24 h): 6.4%
- KIDNEY_L (24 h): 1 g
- KIDNEY_R (24 h): 1 g
- KIDNEY_TOTAL (24 h): 2 g
- ALP (24 h): 981.2 IU/L
- ALT (24 h): 32.6 IU/L
- AST (24 h): 62.6 IU/L
- CRE (24 h): 0.4 mg/dL
- DBIL (24 h): 0.098 mg/dL
- IP (24 h): 7.5 mg/dL
- K (24 h): 3.9 meq/L
- LDH (24 h): 161 IU/L
- Na (24 h): 142.4 meq/L
- RALB (24 h): 3.4 g/dL
- TBIL (24 h): 0.2 mg/dL
- TC (24 h): 74.2 mg/dL
- TG (24 h): 125.4 mg/dL
- TP (24 h): 5.5 g/dL
